The values that follow come from patent EP3771714A1, “NITROGEN-CONTAINING HETEROCYCLES AS PESTICIDES” (Bayer AG, priority 2019, dated 2021).

Data set [1] deals with Myzus persicae. Nature of the data set: Myzus persicae spray test. It counts as in vivo. The following applies: 100 g/ha; Chinese cabbage leaf discs (Brassica pekinensis), all stages; after 5 days. From the text: Bei diesem Test zeigten z. B. die folgenden Verbindungen der Herstellungsbeispiele Wirkung von 100 % bei einer Aufwandmenge von 20 ppm: 1. Myzus persicae - Sprühtest
(§1) Zur Herstellung einer zweckmäßigen Wirkstoffzubereitung löst man 1 Gewichtsteil Wirkstoff mit den angegebenen Gewichtsteilen Lösungsmittel und füllt mit Wasser, welches eine Emulgatorkonzentration von 1000 ppm enthält, bis zum Erreichen der gewünschten Konzentration auf. Zur Herstellung weiterer Testkonzentrationen wird mit emulgatorhaltigem Wasser verdünnt.
Chinakohlblattscheiben (Brassica pekinensis), die von allen Stadien der Grünen Pfirsichblattlaus (Myzus persicae) befallen sind, werden mit einer Wirkstoffzubereitung der gewünschten Konzentration gespritzt.
(§2) Nach 5 Tagen wird die Wirkung in % bestimmt. Dabei bedeutet 100 %, dass alle Blattläuse abgetötet wurden; 0 % bedeutet, dass keine Blattläuse abgetötet wurden.

Data set [2] can be described thus: logP determination by HPLC on reversed-phase (C18) columns, OECD Guideline 117. It counts as physicochemical. From the text:
Die Eichung erfolgt mit unverzweigten Alkan-2-onen (mit 3 bis 16 Kohlenstoffatomen), deren logP-Werte bekannt sind (Bestimmung der logP-Werte anhand der Retentionszeiten durch lineare Interpolation zwischen zwei aufeinander folgenden Alkanonen).

The subject of a further data set is Phaedon cochleariae. Nature of the data set: Phaedon cochleariae spray test. It is filed as in vivo. To be noted: 500 g/ha; Chinese cabbage leaf discs (Brassica pekinensis), larvae; after 7 days.
Excerpt: Bei diesem Test zeigten z. B. die folgenden Verbindungen der Herstellungsbeispiele Wirkung von 100 % bei einer Aufwandmenge von 500 g/ha: 1. Phaedon cochleariae - Sprühtest
as §1
Chinakohlblattscheiben (Brassica pekinensis) werden mit einer Wirkstoffzubereitung der gewünschten Konzentration gespritzt und nach dem Abtrocknen mit Larven des Meerrettichblattkäfers (Phaedon cochleariae) besetzt.
Nach 7 Tagen wird die Wirkung in % bestimmt. Dabei bedeutet 100 %, dass alle Käferlarven abgetötet wurden; 0 % bedeutet, dass keine Käferlarven abgetötet wurden.

For another data set, the system named is Nezara viridula. Nature of the data set: Nezara viridula spray test. To be noted: 500 g/ha; barley plants (Hordeum vulgare) with larvae; after 4 days. It counts as in vivo.
Excerpt: Bei diesem Test zeigten z. B. die folgenden Verbindungen der Herstellungsbeispiele Wirkung von 90 % bei einer Aufwandmenge von 100 g/ha: 1, 5, 6, 9. Nezara viridula -Sprühtest
as §1
Gerstenpflanzen (Hordeum vulgare), die mit Larven der Grünen Reiswanze (Nezara viridula) infiziert sind, werden mit einer Wirkstoffzubereitung der gewünschten Konzentration gespritzt.
Nach 4 Tagen wird die Wirkung in % bestimmt. Dabei bedeutet 100 %, dass alle Reiswanzen abgetötet wurden; 0 % bedeutet, dass keine Reiswanzen abgetötet wurden.

A further data set has as its system Tetranychus urticae. Kind of data set: Tetranychus urticae spray test, OP-resistant. It counts as in vivo. The following applies: 500 g/ha; bean leaf discs (Phaseolus vulgaris), all stages, OP-resistent; after 6 days.
Excerpt: Bei diesem Test zeigten z. B. die folgenden Verbindungen der Herstellungsbeispiele Wirkung von 100 % bei einer Aufwandmenge von 500 g/ha: 1. Tetranychus urticae - Sprühtest, OP-resistent
as §1
Bohnenblattscheiben (Phaseolus vulgaris), die von allen Stadien der Gemeinen Spinnmilbe (Tetranychus urticae) befallen sind, werden mit einer Wirkstoffzubereitung der gewünschten Konzentration gespritzt.
Nach 6 Tagen wird die Wirkung in % bestimmt. Dabei bedeutet 100 %, dass alle Spinnmilben abgetötet wurden; 0 % bedeutet, dass keine Spinnmilben abgetötet wurden.

The test system of another data set is Diabrotica balteata. Nature of the data set: Diabrotica balteata spray test. It is filed as in vivo. To be noted: 500 g/ha (=160 µg/Kavität); wheat (Triticum aestivum) with beetle larvae; after 7 days; 100 % = all wheat plants grown as in untreated, uninfected control.
Excerpt: as §1
Vorgequollene Weizenkörner (Triticum aestivum) werden in einer mit Agar und etwas Wasser gefüllten Multiwell-Platte für einen Tag inkubiert (5 Saatkörner pro Kavität). Die gekeimten Weizenkörner werden mit einer Wirkstoffzubereitung der gewünschten Konzentration gespritzt. Anschließend wird jede Kavität mit 10-20 Käferlarven von Diabrotica balteata infiziert.
Nach 7 Tagen wird die Wirkung in % bestimmt. Dabei bedeutet 100 %, dass alle Weizenpflanzen wie in der unbehandelten, nicht infizierten Kontrolle gewachsen sind; 0 % bedeutet, dass keine Weizenpflanze gewachsen ist.

The subject of another data set is Nilaparvata lugens. Nature of the data set: Nilaparvata lugens test. It counts as in vivo. To be noted: 500 g/ha; rice plants (Oryza sativa); after 4 days.
Excerpt: Bei diesem Test zeigten z. B. die folgenden Verbindungen der Herstellungsbeispiele Wirkung von 90 % bei einer Aufwandmenge von 500 g/ha: 1. Nilaparvata lugens -Test
as §1
Reispflanzen (Oryza sativa) werden mit der Wirkstoffzubereitung der gewünschten Konzentration gespritzt und anschließend mit der Braunrückigen Reiszikade (Nilaparvata lugens) infiziert.
Nach 4 Tagen wird die Wirkung in % bestimmt. Dabei bedeutet 100 %, dass alle Reiszikaden abgetötet wurden; 0 % bedeutet, dass keine Reiszikaden abgetötet wurden.

In data set [3] the test system is Myzus persicae. Kind of data set: Myzus persicae oral test. To be noted: 20 ppm; mixed population, uptake through Parafilm; after 5 days. It counts as in vivo. How it is done:
Bei diesem Test zeigten z. B. die folgenden Verbindungen der Herstellungsbeispiele Wirkung von 100 % bei einer Aufwandmenge von 500 g/ha (=160 µg/Kavität): 1, 2, 3, 5, 6, 7, 8, 9, 10, 11, 12. Myzus persicae - Oraltest
Zur Herstellung einer zweckmäßigen Wirkstoffzubereitung löst man 1 Gewichtsteil Wirkstoff mit den angegebenen Gewichtsteilen Lösungsmittel und füllt mit Wasser bis zum Erreichen der gewünschten Konzentration auf.
50 µl der Wirkstoffzubereitung werden in Mikrotiterplatten überführt und mit 150µl IPL41Insektenmedium (33% + 15% Zucker) auf eine Endvolumen von 200 µl aufgefüllt. Anschließend werden die Platten mit Parafilm verschlossen, durch den eine gemischte Population der Grünen Pfirsichblattlaus (Myzus persicae), die sich in einer zweiten Mikrotiterplatte befindet, hindurchstechen und die Lösung aufnehmen kann.
as §2

The next data set deals with Ctenocephalides felis. Kind of data set: Ctenocephalides felis oral test. It is filed as in vivo. The following applies: 100 ppm in citrated cattle blood; adult cat fleas; after 2 days. How it is done: Ctenocephalides felis - Oraltest
Zwecks Herstellung einer zweckmäßigen Wirkstoffzubereitung vermischt man 10 mg Wirkstoff mit 0,5 ml Dimethylsulfoxid. Durch Verdünnen mit citriertem Rinderblut erhält man die gewünschte Konzentration.
Ca. 20 nüchterne adulte Katzenflöhe (Ctenocephalides felis) werden in eine Kammer eingesetzt, die oben und unten mit Gaze verschlossen ist. Auf die Kammer wird ein Metallzylinder gestellt, dessen Unterseite mit Parafilm verschlossen ist. Der Zylinder enthält die Blut-Wirkstoffzubereitung, die von den Flöhen durch die Parafilmmembran aufgenommen werden kann.
Nach 2 Tagen wird die Abtötung in % bestimmt. Dabei bedeutet 100 %, dass alle Flöhe abgetötet wurden; 0 % bedeutet, dass keiner der Flöhe abgetötet wurde.

The mark [4] stands for this setting: HPLC-MS (ESI-positiv), acidic or neutral range not given.
Where [5] appears, read: HPLC-MS/UPLC-MS neutral (method [b], pH 7,8).
The mark [6] stands for this setting: pH 7.8, HPLC-MS/UPLC-MS neutral (method [b], pH 7,8), read-out: LogP-Wert.
The mark [7] stands for this setting: reversed-phase (C18) HPLC column, HPLC-MS (ESI-positiv), acidic or neutral range not given, read-out: LogP-Wert.

Where “and” joins values, the source holds several entries; their conditions need not be identical. Equal values may be shown once. Read-outs that look alike come from different tables or passages of the source.

As to `Cc1csc(N=c2ccccn2-c2ccc(C(F)(F)F)nc2)n1` [Beispiel 1], the Wirkung in % stood at 90% in the data set with Myzus persicae [1]; 100% in the data set on Phaedon cochleariae; 90% in the data set on Nezara viridula; 90% in the data set with Tetranychus urticae; 100% with Diabrotica balteata; 100% in the data set with Nilaparvata lugens. The molecule further returned a Wirkung in % with Myzus persicae [3] of 100%. In addition, the LogP-Wert entry in data set [2] (setting [4]) is “LogP-Wert = 1,08”. The “Abtötung in % (Wirkung)” value in the data set on Ctenocephalides felis was 80%.

Turning to `FC(F)c1ccc(-n2ccccc2=Nc2nc(C3(F)CC3)cs2)cn1` [Beispiel 2], the LogP-Wert entry in [2] (setting [5]) was “LogP-Wert = 3,02”. In addition, in the data set on Diabrotica balteata, the Wirkung in % was 100%.

Consider `FC(F)(F)c1ccc(-n2ccccc2=Nc2nc(C(F)(F)F)cs2)cn1` [Beispiel 3, 1-[(6-Trifluormethyl-3-pyridyl]-N-(4-trifluormethylthiazol-2-yl))pyridin-2-imin], for which the Wirkung in % with Myzus persicae [1] and in the data set on Diabrotica balteata was 100% in each case. Moreover, the LogP-Wert entry in [2] (setting [4]) is “LogP-Wert = 3,60”.

For `FC(F)(F)c1ccc(-n2ccccc2=Nc2ncccn2)cn1` [Beispiel 4, 1-[(6-Trifluormethyl-3-pyridyl]-N-(pyrimid-2-yl))pyridin-2-imin], in data set [2] (setting [4]), the LogP-Wert entry is given as “LogP-Wert = 1,38”.

As for `CCc1csc(N=c2ccccn2-c2ccc(C(F)(F)F)nc2)n1` [Beispiel 5], the Wirkung in % in the data set on Myzus persicae [1] stood at 90%; in the data set on Diabrotica balteata it was 100%. In data set [2] (pH 2.7, LogP-Wert (HCOOH)), the chromatographic logP turned out to be 1.13.

Turning to `FC(F)(F)c1ccc(-n2ccccc2=Nc2nc(C3CC3)cs2)cn1` [Beispiel 6], the Wirkung in % is recorded as 90% in the data set on Myzus persicae [1] and 100% with Diabrotica balteata. The chromatographic logP in data set [2] (pH 2.7, LogP-Wert (HCOOH)) stood at 1.34.

In data set [2] (pH 2.7, LogP-Wert (HCOOH)), `FC(F)(F)c1ccc(-n2ccccc2=Nc2nc(C(F)(F)C(F)(F)F)cs2)cn1` [Beispiel 7] showed a chromatographic logP of 4.03. The same molecule gave a Wirkung in % in the data set with Diabrotica balteata of 100%.

For `N#CC1(c2csc(N=c3ccccn3-c3ccc(C(F)(F)F)nc3)n2)CC1` [Beispiel 8], the Wirkung in % in the data set on Myzus persicae [1] and with Diabrotica balteata was 100% in each case. In data set [2] (pH 2.7, LogP-Wert (HCOOH)), this molecule had a chromatographic logP of 2.39.

Regarding `FC(F)(F)c1ccc(-n2ccccc2=Nc2nc(C3(F)CC3)cs2)cn1` [Beispiel 9], the Wirkung in % in the data set on Myzus persicae [1] was found to be 90%; with Diabrotica balteata, 100%. This molecule also came in with a chromatographic logP in data set [2] (pH 2.7, LogP-Wert (HCOOH)) of 2.04.

Regarding `CC1(c2csc(N=c3ccccn3-c3ccc(C(F)(F)F)nc3)n2)CC1` [Beispiel 10], the chromatographic logP in data set [2] (pH 7.8, LogP-Wert (neutral)) was determined as 3.99. The same molecule came in with a Wirkung in % in the data set with Diabrotica balteata of 100%.

As for `CC(C)(C)c1csc(N=c2ccccn2-c2ccc(C(F)(F)F)nc2)n1` [Beispiel 11], the chromatographic logP in data set [2] (pH 2.7, LogP-Wert (HCOOH)) was 1.47. This molecule also had a Wirkung in % in the data set on Diabrotica balteata of 100%.

As to `N#CC1(c2csc(N=c3ccccn3-c3ccc(C(F)F)nc3)n2)CC1` [Beispiel 12], in data set [2] (pH 7.8, LogP-Wert (neutral)), the chromatographic logP is 2.65. The molecule also yielded a Wirkung in % with Diabrotica balteata of 100%.

Consider `FC(F)(F)c1ccc(-n2ccccc2=S)cn1` [II-1, 6'-Trifluormethyl-[1(2H), 3'-bipyridin]-2-thion], for which, in data set [2] (setting [6]), the chromatographic logP was 1.67.

Take `FC(F)c1ccc(-n2ccccc2=S)cn1` [II-2, 6'-Difluormethyl-[1(2H), 3'-bipyridin]-2-thion]: in [2], the LogP-Wert is 1,23. Besides, the chromatographic logP in data set [2] (LogP-Wert) amounted to 1.18.

With `CSc1cccc[n+]1-c1ccc(C(F)(F)F)nc1` [III-1], the chromatographic logP in data set [2] (setting [7]) is 0.57.

`CSc1cccc[n+]1-c1ccc(C(F)F)nc1` [III-2] returned a chromatographic logP in data set [2] (LogP-Wert) of 0.04.

With `N=c1ccccn1-c1ccc(C(F)(F)F)nc1` [IV-1, 6'-Trifluormethyl-[1(2H), 3'-bipyridin]-2-imin-hydrogeniodid], the chromatographic logP in data set [2] (setting [7]) turned out to be 2.17.

As to `N=C(N=c1ccccn1-c1ccc(C(F)(F)F)nc1)SCC(=O)C(F)(F)F` [N-[1-[(6-trifluormethyl-3-pyridyl)]-2-pyridyliden]-imidothio-(3,3,3-trifluoro-2-oxopropyl)-ester], the LogP-Wert in [2] (setting [5]) is 2,39. Moreover, the chromatographic logP in [2] (setting [6]) stood at 2.37.

In turn, `CCOC(=O)NC(=S)N=c1ccccn1-c1ccc(C(F)(F)F)nc1` [VI-1, Ethyl N-[1-[(6-trifluormethyl-3-pyridyl)]-2-pyridylidene]carbamothioylcarbamat] yielded a chromatographic logP in data set [2] (pH 7.8, LogP-Wert) of 1.71.

`CCOC(=O)NC(=S)N=c1ccccn1-c1ccc(C(F)F)nc1` [VI-2, Ethyl N-[1-[(6-difluormethyl-3-pyridyl)]-2-pyridylidene]carbamothioylcarbamat] gave a chromatographic logP in data set [2] (pH 7.8, LogP-Wert) of 1.28.

In the case of `NC(=S)N=c1ccccn1-c1ccc(C(F)(F)F)nc1` [VII-1, N-[1-[(6-Trifluormethyl-3-pyridinyl)]-2(1H)-pyridinyliden]-thioharnstoff], in data set [2] (setting [4]), the LogP-Wert was 1,12 and 1,14.

The molecule `NC(=S)N=c1ccccn1-c1ccc(C(F)F)nc1` [VII-2, N-[1-[(6-Difluormethyl-3-pyridinyl)]-2(1H)-pyridinyliden]-thioharnstoff] displayed a chromatographic logP in data set [2] (pH 7.8, LogP-Wert) of 0.7.
